Test [1] has as its target T1, CBP (1-111) (disordered sequence region) and β-catenin (Homo sapiens, UniProt Q92793).
T1 construct: made in house; host or cells: E. coli
Conditions: cited from earlier work.

The target in test [2] is T2, CBP (1-111) (disordered sequence region) (Homo sapiens, UniProt Q92793).
T2 construct: NMR analysis using CBP (1-111) expressed in E. coli as a sample; made in house; host or cells: E. coli
Put plainly: 2D NMR analysis of 15N-labeled CBP (1-111) with ICG-001. The class given is binding. Conditions: 5 μM or 15 μM ICG-001. How it is done:
^15N-labeled CBP (1^-111) (disordered sequence region) was expressed E. coli and dissolved in a buffer (NaP 25 mM·pH 6.8, NaCl 50 mM, 0.02% NaN3), and 300 μl thereof was introduced into an NMR sample tube. Moreover, a D2O solution of ICG-001 was added so as to attain an ICG^-001 concentration of 5 μM or 15 μM. Solutions prepared in this manner as NMR samples were subjected to an NMR analysis. In the NMR analysis, the measurement and analysis was carried out to give a 2D spectrum, with the X axis indicating […] data and the Y axis indicating N-15 data.

For another test, the target named is T3, CBP (Homo sapiens, UniProt Q92793).
T3 construct: endogenous in cells; host or cells: SW480 nuclear extract
T3 sequence (Q92793 whole entry): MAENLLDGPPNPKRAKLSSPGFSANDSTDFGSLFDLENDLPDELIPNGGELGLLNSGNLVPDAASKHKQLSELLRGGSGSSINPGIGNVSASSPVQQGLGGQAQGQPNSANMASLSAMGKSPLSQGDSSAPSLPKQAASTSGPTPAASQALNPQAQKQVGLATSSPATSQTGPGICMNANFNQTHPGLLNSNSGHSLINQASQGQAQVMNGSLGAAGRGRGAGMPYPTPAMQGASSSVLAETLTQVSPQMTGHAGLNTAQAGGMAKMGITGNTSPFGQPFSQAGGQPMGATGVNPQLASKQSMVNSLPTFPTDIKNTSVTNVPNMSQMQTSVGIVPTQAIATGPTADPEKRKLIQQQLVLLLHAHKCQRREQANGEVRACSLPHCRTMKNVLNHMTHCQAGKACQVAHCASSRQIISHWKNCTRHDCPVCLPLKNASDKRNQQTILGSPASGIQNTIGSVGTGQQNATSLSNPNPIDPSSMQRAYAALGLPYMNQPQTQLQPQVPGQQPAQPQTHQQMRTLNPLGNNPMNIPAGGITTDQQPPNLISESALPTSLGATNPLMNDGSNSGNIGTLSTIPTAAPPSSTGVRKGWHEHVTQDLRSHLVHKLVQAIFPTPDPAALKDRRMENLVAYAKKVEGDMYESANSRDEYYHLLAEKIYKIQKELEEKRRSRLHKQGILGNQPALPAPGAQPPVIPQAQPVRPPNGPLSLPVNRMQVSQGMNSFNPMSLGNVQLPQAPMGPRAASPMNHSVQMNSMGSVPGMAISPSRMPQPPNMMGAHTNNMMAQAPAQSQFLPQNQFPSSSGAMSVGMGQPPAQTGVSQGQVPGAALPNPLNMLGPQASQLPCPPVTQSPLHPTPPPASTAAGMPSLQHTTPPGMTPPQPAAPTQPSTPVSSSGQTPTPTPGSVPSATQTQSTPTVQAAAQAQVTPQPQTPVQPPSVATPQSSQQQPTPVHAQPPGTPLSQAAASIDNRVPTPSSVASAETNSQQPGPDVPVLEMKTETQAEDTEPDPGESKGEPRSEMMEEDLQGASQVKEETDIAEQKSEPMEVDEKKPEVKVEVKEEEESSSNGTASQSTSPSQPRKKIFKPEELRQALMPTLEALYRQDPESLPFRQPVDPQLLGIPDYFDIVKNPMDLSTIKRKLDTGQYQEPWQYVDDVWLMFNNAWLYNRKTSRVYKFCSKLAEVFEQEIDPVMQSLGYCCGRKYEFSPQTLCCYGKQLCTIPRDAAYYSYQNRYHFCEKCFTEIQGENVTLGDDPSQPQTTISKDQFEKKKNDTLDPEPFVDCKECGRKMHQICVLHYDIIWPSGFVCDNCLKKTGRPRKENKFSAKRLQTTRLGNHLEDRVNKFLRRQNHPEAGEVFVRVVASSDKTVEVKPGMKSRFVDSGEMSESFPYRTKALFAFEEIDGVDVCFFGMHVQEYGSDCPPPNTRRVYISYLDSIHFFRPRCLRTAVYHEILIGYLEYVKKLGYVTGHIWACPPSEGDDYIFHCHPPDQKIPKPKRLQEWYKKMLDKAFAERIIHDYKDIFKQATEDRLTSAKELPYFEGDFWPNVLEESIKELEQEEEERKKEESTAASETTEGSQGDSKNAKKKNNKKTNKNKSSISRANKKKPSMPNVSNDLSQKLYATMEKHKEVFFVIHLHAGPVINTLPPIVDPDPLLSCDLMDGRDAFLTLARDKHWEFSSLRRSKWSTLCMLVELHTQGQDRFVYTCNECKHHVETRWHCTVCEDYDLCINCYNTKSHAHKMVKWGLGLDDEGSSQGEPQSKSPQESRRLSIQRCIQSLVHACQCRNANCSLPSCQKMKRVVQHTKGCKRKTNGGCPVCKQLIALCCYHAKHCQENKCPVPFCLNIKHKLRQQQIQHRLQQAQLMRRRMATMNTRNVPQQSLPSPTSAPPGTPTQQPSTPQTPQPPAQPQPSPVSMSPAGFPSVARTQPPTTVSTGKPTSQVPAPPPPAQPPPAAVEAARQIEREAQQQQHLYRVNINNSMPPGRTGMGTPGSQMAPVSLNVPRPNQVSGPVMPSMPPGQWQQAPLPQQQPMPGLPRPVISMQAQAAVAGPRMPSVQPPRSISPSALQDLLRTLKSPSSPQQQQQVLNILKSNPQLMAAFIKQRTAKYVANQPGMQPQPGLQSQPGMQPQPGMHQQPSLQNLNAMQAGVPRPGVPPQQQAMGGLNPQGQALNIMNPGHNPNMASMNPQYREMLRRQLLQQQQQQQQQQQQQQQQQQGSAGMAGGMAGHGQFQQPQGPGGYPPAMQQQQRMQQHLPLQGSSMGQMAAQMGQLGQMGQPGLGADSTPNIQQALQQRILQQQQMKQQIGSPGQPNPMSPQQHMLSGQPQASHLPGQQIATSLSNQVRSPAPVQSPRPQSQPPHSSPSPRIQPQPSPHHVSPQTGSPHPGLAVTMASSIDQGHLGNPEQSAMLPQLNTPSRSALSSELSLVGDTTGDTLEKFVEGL
Conditions: SW480 nuclear extract; FIG. 1; cited from earlier work.

Test [3] addresses T4, p300 (1-111) (disordered sequence region) (Homo sapiens, UniProt Q09472).
T4 construct: made in house; host or cells: E. coli
T4 sequence (Q09472 1-111): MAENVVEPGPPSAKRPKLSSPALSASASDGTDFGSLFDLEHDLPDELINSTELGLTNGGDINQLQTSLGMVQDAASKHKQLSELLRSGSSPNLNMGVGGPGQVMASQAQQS
Conditions: p300 (1-111) expressed in E. coli; cited from earlier work.

Entries after “also recorded” stand apart in the source; their conditions may differ.

T1 sequence (Q92793 1-111): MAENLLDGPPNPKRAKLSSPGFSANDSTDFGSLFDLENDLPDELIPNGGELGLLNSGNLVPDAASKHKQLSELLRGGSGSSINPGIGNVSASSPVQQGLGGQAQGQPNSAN
T2 sequence (Q92793 1-111): as above

On to `O=C1[C@H](Cc2ccc(O)cc2)N2C(=O)CCN(C(=O)NCc3ccccc3)[C@H]2CN1Cc1cccc2ccccc12` [ICG-001], for which the “separation of CBP (1-111) from β-catenin on addition of compound” value in test [1] (CBP (1-111) and β-catenin expressed in E. coli, pulled down by immunoprecipitation) is listed as “CBP (1-111) became separated”. Further, the “binding to the N-terminus of CBP” value in test [1] (CBP (1-111), FIG. 2) was “binds to the N-terminus sequence of CBP; also recorded: bound to the N-terminus of CBP”. Moreover, the “interaction between CBP1-111 and compound (NMR)” value in test [2] is “clear interaction”. For the same molecule, the “change of NMR peak of CBP1-111 on addition of compound” value in test [2] (buffer pH 6.8, FIGS. 5 and 6) is “change of a peak”. Further, the “binding to CBP (pull-down)” value on CBP was “binds to CBP; also recorded: bound to CBR”. Further, in test [3], the “binding to p300” value was “does not binds to p300; also recorded: did not bind; also recorded: does not occur”.
